What was measured:
[1] = Antiproliferative activity against human UO31 cells assessed as growth inhibition after 48 hrs by sulforhodamine B assay; assay type: functional; details: UO-31, 48 h
[2] = test system: NCI-H460; assay: Antiproliferative activity against human NCI-H460 cells assessed as cell growth at 10^-6 M after 48 hrs by sulforhodamine B assay; assay type: functional; details: NCI-H460, 48 h, read-out: Activity
[3] = test system: KM12; assay: Antiproliferative activity against human KM12 cells assessed as cell growth at 10^-6 M after 48 hrs by sulforhodamine B assay; assay type: functional; details: KM12, 48 h, read-out: Activity
[4] = test system: T47D; assay: Antiproliferative activity against human T47D cells assessed as cell growth at 10^-6 M after 48 hrs by sulforhodamine B assay; assay type: functional; details: read-out: Activity
[5] = Antiproliferative activity against human SNB75 cells assessed as cell growth at 10^-4 M after 48 hrs by sulforhodamine B assay; assay type: functional; details: SNB-75, 48 h, read-out: Activity
[6] = Antiproliferative activity against human OVCAR5 cells assessed as cell growth at 10^-4 M after 48 hrs by sulforhodamine B assay; assay type: functional; details: OVCAR-5, 48 h, read-out: Activity
[7] = molecular target: RAF proto-oncogene serine/threonine-protein kinase (Homo sapiens, UniProt P04049); assay: Inhibition of human CRAF at 10 uM measured after 40 mins by scintillation counting
RAF proto-oncogene serine/threonine-protein kinase, sequence (P04049 whole entry): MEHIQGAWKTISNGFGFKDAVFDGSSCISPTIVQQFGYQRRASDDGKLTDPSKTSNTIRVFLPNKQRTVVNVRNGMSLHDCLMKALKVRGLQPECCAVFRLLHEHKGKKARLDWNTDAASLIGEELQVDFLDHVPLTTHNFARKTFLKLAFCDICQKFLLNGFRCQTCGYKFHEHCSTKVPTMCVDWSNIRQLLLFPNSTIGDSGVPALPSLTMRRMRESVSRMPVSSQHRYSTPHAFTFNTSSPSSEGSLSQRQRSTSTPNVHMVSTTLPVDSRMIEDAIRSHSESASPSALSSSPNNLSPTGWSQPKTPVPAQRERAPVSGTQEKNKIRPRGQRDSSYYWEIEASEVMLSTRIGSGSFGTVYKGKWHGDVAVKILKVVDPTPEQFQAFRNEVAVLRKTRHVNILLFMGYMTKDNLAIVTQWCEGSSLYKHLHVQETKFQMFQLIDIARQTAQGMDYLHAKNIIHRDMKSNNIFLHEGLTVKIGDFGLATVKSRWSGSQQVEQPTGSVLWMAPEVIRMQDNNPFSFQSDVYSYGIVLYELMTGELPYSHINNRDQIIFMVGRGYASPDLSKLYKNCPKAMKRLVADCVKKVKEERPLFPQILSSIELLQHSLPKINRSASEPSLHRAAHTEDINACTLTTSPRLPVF

[8] = test system: SK-MEL-2; assay: Antiproliferative activity against human SK-MEL-2 cells assessed as cell growth at 10^-4 M after 48 hrs by sulforhodamine B assay; assay type: functional; details: SK-MEL-2, 48 h, read-out: Activity
[9] = test system: MDA-MB-231; assay: Antiproliferative activity against human MDA-MB-231 cells assessed as cell growth at 10^-8 M after 48 hrs by sulforhodamine B assay; assay type: functional; details: MDA-MB-231, 48 h, read-out: Activity
[10] = Antiproliferative activity against human Caki1 cells assessed as cell growth at 10^-6 M after 48 hrs by sulforhodamine B assay; assay type: functional; details: CAKI-1, 48 h, read-out: Activity
[11] = Antiproliferative activity against human RPMI8226 cells assessed as growth inhibition after 48 hrs by sulforhodamine B assay; assay type: functional; details: RPMI-8226, 48 h
[12] = Antiproliferative activity against human SNB75 cells assessed as growth inhibition after 48 hrs by sulforhodamine B assay; assay type: functional; details: SNB-75, 48 h
[13] = Antiproliferative activity against human OVCAR4 cells assessed as cell growth at 10^-4 M after 48 hrs by sulforhodamine B assay; assay type: functional; details: OVCAR-4, 48 h, read-out: Activity
[14] = test system: SN12C; assay: Antiproliferative activity against human SN12C cells assessed as cell growth at 10^-7 M after 48 hrs by sulforhodamine B assay; assay type: functional; details: read-out: Activity
[15] = test system: Malme-3M; assay: Antiproliferative activity against human MALME-3M cells assessed as cell growth at 10^-6 M after 48 hrs by sulforhodamine B assay; assay type: functional; details: read-out: Activity
[16] = Antiproliferative activity against human OVCAR3 cells assessed as cell growth at 10^-4 M after 48 hrs by sulforhodamine B assay; assay type: functional; details: OVCAR-3, 48 h, read-out: Activity
[17] = test system: NCI-H23; assay: Antiproliferative activity against human NCI-H23 cells assessed as cell growth at 10^-8 M after 48 hrs by sulforhodamine B assay; assay type: functional; details: NCI-H23, 48 h, read-out: Activity
[18] = test system: HT-29; assay: Antiproliferative activity against human HT-29 cells assessed as cell growth at 10^-8 M after 48 hrs by sulforhodamine B assay; assay type: functional; details: HT-29, 48 h, read-out: Activity
[19] = test system: CCRF-CEM; assay: Antiproliferative activity against human CCRF-CEM cells assessed as cell growth at 10^-6 M after 48 hrs by sulforhodamine B assay; assay type: functional; details: read-out: Activity
[20] = test system: SR; assay: Antiproliferative activity against human SR cells assessed as cell growth at 10^-7 M after 48 hrs by sulforhodamine B assay; assay type: functional; details: read-out: Activity
[21] = test system: HT-29; assay: Antiproliferative activity against human HT-29 cells assessed as cell growth at 10^-7 M after 48 hrs by sulforhodamine B assay; assay type: functional; details: HT-29, 48 h, read-out: Activity
[22] = Antiproliferative activity against human UO31 cells assessed as cell growth at 10^-6 M after 48 hrs by sulforhodamine B assay; assay type: functional; details: UO-31, 48 h, read-out: Activity
[23] = Antiproliferative activity against human OVCAR4 cells assessed as cell growth at 10^-8 M after 48 hrs by sulforhodamine B assay; assay type: functional; details: OVCAR-4, 48 h, read-out: Activity
[24] = test system: ACHN; assay: Antiproliferative activity against human ACHN cells assessed as cell growth at 10^-7 M after 48 hrs by sulforhodamine B assay; assay type: functional; details: read-out: Activity
[25] = test system: SN12C; assay: Antiproliferative activity against human SN12C cells assessed as growth inhibition after 48 hrs by sulforhodamine B assay; assay type: functional
[26] = test system: U-251; assay: Antiproliferative activity against human U251 cells assessed as cell growth at 10^-4 M after 48 hrs by sulforhodamine B assay; assay type: functional; details: U-251, 48 h, read-out: Activity
[27] = test system: K562; assay: Antiproliferative activity against human K562 cells assessed as cell growth at 10^-6 M after 48 hrs by sulforhodamine B assay; assay type: functional; details: K562, 48 h, read-out: Activity
[28] = Antiproliferative activity against human HCC2998 cells assessed as cell growth at 10^-6 M after 48 hrs by sulforhodamine B assay; assay type: functional; details: HCC 2998, 48 h, read-out: Activity
[29] = test system: SK-MEL-2; assay: Antiproliferative activity against human SK-MEL-2 cells assessed as cell growth at 10^-6 M after 48 hrs by sulforhodamine B assay; assay type: functional; details: SK-MEL-2, 48 h, read-out: Activity
[30] = Antiproliferative activity against human SF539 cells assessed as cell growth at 10^-4 M after 48 hrs by sulforhodamine B assay; assay type: functional; details: SF-539, 48 h, read-out: Activity
[31] = test system: HT-29; assay: Antiproliferative activity against human HT-29 cells assessed as cell growth at 10^-4 M after 48 hrs by sulforhodamine B assay; assay type: functional; details: HT-29, 48 h, read-out: Activity
[32] = Antiproliferative activity against human UACC257 cells assessed as cell growth at 10^-4 M after 48 hrs by sulforhodamine B assay; assay type: functional; details: UACC-257, 48 h, read-out: Activity
[33] = Antiproliferative activity against human HCT15 cells assessed as cell growth at 10^-7 M after 48 hrs by sulforhodamine B assay; assay type: functional; details: HCT-15, 48 h, read-out: Activity
[34] = test system: 786-0; assay: Antiproliferative activity against human 786-0 cells assessed as cell growth at 10^-6 M after 48 hrs by sulforhodamine B assay; assay type: functional; details: 786-0, 48 h, read-out: Activity
[35] = Antiproliferative activity against human SKOV3 cells assessed as cell growth at 10^-7 M after 48 hrs by sulforhodamine B assay; assay type: functional; details: SK-OV-3, 48 h, read-out: Activity
[36] = Antiproliferative activity against human NCI-ADR-RES cells assessed as cell growth at 10^-8 M after 48 hrs by sulforhodamine B assay; assay type: functional; details: read-out: Activity
[37] = test system: ACHN; assay: Antiproliferative activity against human ACHN cells assessed as cell growth at 10^-4 M after 48 hrs by sulforhodamine B assay; assay type: functional; details: read-out: Activity
[38] = Antiproliferative activity against human MOLT4 cells assessed as cell growth at 10^-8 M after 48 hrs by sulforhodamine B assay; assay type: functional; details: MOLT-4, 48 h, read-out: Activity
[39] = read-out: LC50 (the source's name)

Q: Which results are given for `CNC(=O)c1cc(Oc2ccc3nc(NC(=O)Nc4ccc(Cl)c(C(F)(F)F)c4)sc3c2)ccn1`?
A: GI50 [1]: 2170 nM; growth at 1 µM [2]: 86%; growth at 1 µM [3]: 85%; growth at 1 µM [4]: 43%; growth at 100 µM [5]: -80%; growth at 100 µM [6]: -24%; inhibition [7]: 94.8%; growth at 100 µM [8]: -18%; growth at 0.01 µM [9]: 115%; growth at 1 µM [10]: 95%; GI50 [11]: 2220 nM; LC50 [11]: > 100000 nM; GI50 [12]: 1520 nM; TGI [12]: 3240 nM; CC50 [12, 39]: 6880 nM; growth at 100 µM [13]: -15%; growth at 0.1 µM [14]: 93%; growth at 1 µM [15]: 79%; growth at 100 µM [16]: -14%; growth at 0.01 µM [17]: 100%; growth at 0.01 µM [18]: 99%; growth at 1 µM [19]: 73%; growth at 0.1 µM [20]: 105%; growth at 0.1 µM [21]: 103%; growth at 1 µM [22]: 108%; growth at 0.01 µM [23]: 93%; growth at 0.1 µM [24]: 102%; GI50 [25]: 2440 nM; TGI [25]: > 100000 nM; CC50 [25, 39]: > 100000 nM; growth at 100 µM [26]: -34%; growth at 1 µM [27]: 96%; growth at 1 µM [28]: 94%; growth at 1 µM [29]: 89%; growth at 100 µM [30]: -49%; growth at 100 µM [31]: 68%; growth at 100 µM [32]: 30%; growth at 0.1 µM [33]: 96%; growth at 1 µM [34]: 95%; growth at 0.1 µM [35]: 103%; growth at 0.01 µM [36]: 110%; growth at 100 µM [37]: -62%; growth at 0.01 µM [38]: 106%

— ChEMBL document CHEMBL3797052 (Eur J Med Chem, 2016)
